This is an account of results in US20240376484A1, “TRANSFORMING CANNABACEAE CELLS” (Cibus US LLC, priority 2021, published 2024).

The subject of assay [1] is cannabis EAs. The experiment in a line: Regeneration of cannabis EAs on SIM with 10 mg/L TDZ under different light conditions. The format is cell-based. The note with it: for explants with 3+ meristems: 10 mg/L TDZ. The source says: Various experiments were directed to testing different culture media and different concentrations of components of the culture media, such as SIMs with different TDZ concentrations. […] Based on various experiments, it is believed that cannabis plants have strong apical dominance, and breaking the apical dominance will increase transformation efficiency and result in more transgenic events. […] Some experiments were directed to testing different SIMs on cannabis EAs and with different light conditions. For example, the seeds were sterilized and imbibed, and the EAs were extracted. In some experiments, the EAs were not transformed, and between 40 and 50 EAs were regenerated on each different SIMs. In further experiments, a subset of the EAs were plated on an SIM without plant growth regulators, such as TDZ, and the remaining EAs were plated on an SIM with 10 mg/L TDZ, with different groups of each subset being exposed to different light conditions. Tables 2 and 3 summarize example media and light conditions:
The B, G, R values in Table 3 include blue, green, and red light values, along with the intensity of the light.
FIGS. 16F and 16G are graphs illustrating the results of the different light conditions on the number of meristems per explant in cultures without plant growth regulators (FIG. 16F) and with 10 mg/L TDZ (FIG. 16G). […] For example, around half of the 10 mg/L TDZ had multiple meristems, with the light II conditions resulting in 40% explants with 3+ meristems, […] explants with 3+ meristems, and light I conditions resulting in 12% explants with 3+ meristems.

In assay [2] the test system is cannabis EAs. In words: Regeneration of non-transformed cannabis EAs on different SIMs, number of meristems per explant. It counts as cell-based. The note with it: added to SIM with TDZ.
Description: Various experiments were directed to testing different culture media and different concentrations of components of the culture media, such as SIMs with different TDZ concentrations. […] Some experiments were directed to testing different SIMs on cannabis EAs and with different light conditions. For example, the seeds were sterilized and imbibed, and the EAs were extracted. In some experiments, the EAs were not transformed, and between 40 and 50 EAs were regenerated on each different SIMs. In further experiments, a subset of the EAs were plated on an SIM without plant growth regulators, such as TDZ, and the remaining EAs were plated on an SIM with 10 mg/L TDZ, with different groups of each subset being exposed to different light conditions.
The images 1680, 1681, 1683, 1684 show resulting explants regenerated in SIM with 1 mg/L TDZ, 2.5 mg/L TDZ, 5 mg/L TDZ, and 10 mg/L TDZ, respectively.
FIG. 16B is a graph illustrating the explants regenerated in the different SIMs as previously described by FIG. 16A and the number of resulting meristems.
In some experiments, additional TDZ concentrations were tested and different combinations of components in the SIM were tested.

As to `O=C(Nc1ccccc1)Nc1cnns1` [TDZ, thidiazuron], the “share of explants with multiple meristems” value in assay [1] (10 mg/L TDZ in SIM, FIG. 16G) is on record as “around half”. Moreover, the entries for the “explants with 3+ meristems” value in assay [1] (light I conditions), in assay [1] (light II conditions) and in assay [1] (light II conditions (printed a second time)) were 12%, 40% and 24%, respectively.
Regarding `O=C(O)Cc1c[nH]c2ccccc12` [IAA, indoleacetic acid], in assay [2], the “impact of SIM additive on regeneration” value is listed as “did not have a significant positive impact”.
Consider Adenine Hemisulfate, for which, in assay [2], the “impact of SIM additive on regeneration” value is “did not have a significant positive impact”.
